Measurements reported in patent US4166852A, “Piperazino-pyrimidines and their use as spasmolytic agents” (priority 1974, dated 1979).
Values after ≈ are worked out from the molar mass of the structure shown. Structures can show the parent of a compound that is named as a salt. Where two headings read alike, the source gives them in different places.

Tests used:
[1] = acute toxicity, LD 50, CD 1 mice; assay type: in vivo; conditions: mouse, in vivo
Text: The acute toxicities of the compounds according to the invention have been determined on CD 1 (Charles RIVER) mice by intravenous and oral methods. The LD 50 of each compound has been calculated by the cumulative method of J. J. Reed and H. Muench, (Amer. J. Hyg., 1938, 27, 493).

dogs = assay: anti-emetic activity, apomorphine vomiting test on dogs; assay type: in vivo; conditions: for ED50: Canis lupus familiaris, po, read-out: Anti-emetic activity on dogs ED 50
Text: The anti-emetic properties of the compounds according to the invention have been shown by oral administration of apomorphine to dogs in the vomiting test according to G. Chen and C. J. Ensor, Pharmacol. exp. Therap., 98, 24 (1950).

mice = assay: analgesic activity, painful abdominal torsions test with phenylbenzoquinone; assay type: in vivo, CD 1 (Charles RIVER) mice; conditions: Mus musculus, po; mice, orally; read-out: Phenylbenzoquinone test on mice AD 50
Text: The analgesic properties of the products according to the invention have been shown with CD 1 (Charles RIVER) mice in the painful abdominal torsions test with phenylbenzoquinone according to the technique of E. Siegmund, R. Cadmus and Go.Lu--Proc. Soc. Exp. Biol. Med., 95, 729, (1957).

[2] = tested on: isolated duodenum of the rabbit (acetylcholine); assay: spasmolytic effect on isolated duodenum, acetylcholine spasm; assay type: cell-based; conditions: Oryctolagus cuniculus, read-out: Spasmolytic effects EC 50 with respect to acetylcholine
Text: (§1) Ges. Physiol., 102, 123, (1904) with respect to the spasms of the isolated duodenum of rabbits caused either by acetylchlorine for the spasmolytic nemotropes or by barium chloride for the spasmolytic musculotropes.

[3] = tested on: isolated duodenum of the rabbit (barium chloride); assay: spasmolytic effect on isolated duodenum, barium chloride spasm; assay type: cell-based; conditions: Oryctolagus cuniculus, read-out: Spasmolytic effects EC 50 with respect to barium chloride
Text: as §1

head twitch = assay: anti-serotonine activity, head twitch; assay type: in vivo, CD 1 (Charles RIVER) mice; conditions: Mus musculus, po; mice, orally; read-out: "Head-twitch" AD 50
Text: (§2) The anti-serotonine activities of the compounds according to the invention have been shown by oral administration to the CD (Charles RIVER) rats using the technique of the serotonine plantar oedema (W. Theobald and R. Domenjoz--Arzneimittel Forsch, 8, 18, 1958 and with the CD 1 (Charles RIVER) mice using the technique known as "head twitch" according to S. J. Corne, R. W. Pickering and B. T. Warner, Brit. J. Pharmacol., 20, 106, (1963). The anti-serotonine activity has also been determined on the one hand on the tricoloured guinea-pig, given intravenously, according to a method derived from H. Konzet and R. Rossler, Arch. exp. Pathol, Pharmakol., 195, 71, (1940) and on the other hand in vitro with respect to the serotonine spasm of the isolated uterus of the rat according to the technique of A. Fanchamps, W. Doepfener, H. Weidman and A. Cerletti, Schw. Med. Worsch, 90, 1940, (1960).

rat = assay: catalepsy test, rat; assay type: in vivo, CD rat (Charles RIVER); conditions: po, orally, read-out: Catalepsy AD 50
Text: (§3) The neuroloptic effects of the compounds according to the invention have been shown with respect to the CD rat (Charles RIVER) taken orally in the catalepsy test according to S. COURVOISIER, R. DUCROT, and L. JULOU, in Psychotropic Drugs, S. GARATTINI and V. GHETTI, Edit.--ELSEVIER Publ. Co., AMSTERDAM, LONDON, NEW YORK, PRINCETON, 1957 P. 373 and also in the traction test of CD1 (Charles RIVER) mice taken orally S. COURVOISIER, Quart. Rev. Psychiat. Neurol. 17, 25 (1956), on the one hand and also in the spontaneous motility test.

mouse [4] = assay: traction test, mouse; assay type: in vivo, CD1 (Charles RIVER) mice; conditions: po, orally, read-out: Traction AD 50
Text: as §3

serotonine bronchospasms = assay: anti-serotonine activity, serotonine bronchospasms; assay type: in vivo, tricoloured guinea-pig; conditions: Cavia porcellus, iv; guinea pig, intravenously; read-out: Serotonine bronchospasms ED 50
Text: as §2

[5] = tested on: serotonine plantar oedema; assay: anti-serotonine activity, serotonine plantar oedema; assay type: in vivo, CD (Charles RIVER) rats; conditions: po; rat, orally; read-out: Serotonine plantar oedema AD 50
Text: as §2

mouse [6] = assay: spontaneous motility test (hypomotility), mouse; assay type: in vivo, mice; conditions: po, 1 h, orally, 60 minutes before measuring, 50% reduction of mean motility, first 5 minutes, read-out: Hypomotility ED 50
Text: as §3
This latter technique comprises keeping an account of the displacements of the mice by means of a floor of metal strips which enables the spontaneous activity of the animals to be recorded during the first 5 minutes subsequent to their being introduced into the measuring chamber. The products are dispensed 60 minutes before measuring is effected and 10 mice are used per dose. The results are expressed in ED 50 which represents the dose of substance capable of reducing the mean motility of the treated animals by 50% relative to that of the sample group which has only received the dispensing carrier.

solubility = assay type: physicochemical
[7] = intravenous, read-out: Acute toxicity for mice LD 50, intravenous
[8] = oral, read-out: Acute toxicity for mice LD 50, orally

Structure (SMILES)	LD50 [1, 7] [mg/kg]	LD50 [1, 8] [mg/kg]	ED50 (dogs; dogs, orally, apomorphine) [mg/kg]	ED50 (mice) [mg/kg]	EC50 [2] [µg/mL]	EC50 [3] [µg/mL]	ED50 (head twitch) [mg/kg]	ED50 (dogs) [mg/kg]	ED50 (rat) [mg/kg]	ED50 (mouse [4]) [mg/kg]	ED50 (serotonine bronchospasms) [mg/kg]	anti-vomiting ranking (dogs; comparison within the series, dogs)	ED50 [5] [mg/kg]	ED50 (mouse [6]) [mg/kg]	solubility in dilute hydrochloric acid (solubility)	solubility in ethanol (alcohol) (solubility)	solubility in water (solubility)
CSc1c(Cl)nc(NC(C)C)nc1N1CCN(C)CC1 [Example 2, 2-Isopropylamino-4-N-methyl-piperazino-6-chloro-5-methylthio-pyrimidine]	79	~525	0.12	65	5 (≈ 15.8 µM)	1.2 (≈ 3.8 µM)	–	–	–	–	–	–	–	–	–	–	–
CSc1c(Cl)nc(NC(C)(C)C)nc1N1CCN(C)CC1 [Example 3, 2-t-butylamino-4-N-methylpiperazino-5-methylthio-6-chloro-pyrimidine]	67	~600	–	–	2.5 (≈ 7.58 µM)	0.5 (≈ 1.52 µM)	300	–	–	–	–	–	–	–	–	–	–
CSc1c(Cl)nc(N)nc1N1CCN(C)CC1 [Example 6, 2-Amino-4-N-methylpiperazino-6-chloro-5-methylthio-pyrimidine hydrochloride]	33	~225	–	–	–	–	30	0.11	100	> 100	1.2	–	–	–	–	–	–
CNc1nc(Cl)c(SC)c(N2CCN(c3ccccc3)CC2)n1 [Example 7, 4-N-phenylpiperazino-2-methylamino-6-chloro-5-methylthio-pyrimidine]	–	–	–	–	–	–	400	–	–	–	–	–	–	–	–	–	–
CNc1nc(Cl)c(SC)c(N2CCN(CCO)CC2)n1 [Example 8, 2-Methylamino-4-N-(β-hydroxyethyl)-piperazino-6-chloro-5-methylthio-pyrimidine]	124	~525	0.25	–	5 (≈ 15.7 µM)	1.3 (≈ 4.09 µM)	–	–	–	–	–	–	–	–	–	–	–
CSc1c(Cl)nc(N2CCN(C)CC2)nc1N1CCN(C)CC1 [Example 9, Bis-2,4-(N-methylpiperazino)-6-chloro-5-methylthio-pyrimidine hydrochloride]	83	~675	–	150	> 10	3.6	300	–	–	–	–	–	–	–	–	–	–
CNc1nc(Cl)c(SC)c(N2CCNCC2)n1 [Example 10, 2-Methylamino-4-piperazino-6-chloro-5-methylthio-pyrimidine hydrochloride]	57	~225	–	65	–	–	–	0.07	75	–	–	the most strong anti-vomiting agents	–	–	–	–	–
CSc1c(Cl)nc(N2CCCCC2)nc1N1CCN(C)CC1 [Example 11, 2-Piperidino-4-methylpiperazino-5-methylthio-6-chloro-pyrimidine hydrochloride]	115	~525	–	–	2.5	2.2	–	–	–	–	–	–	–	–	–	–	–
CSc1c(Cl)nc(N(C)c2ccccc2)nc1N1CCN(C)CC1 [Example 12, 2-(N-methyl-N-phenyl)amino-4-N-methylpiperazino-5-methylthio-6-chloro-pyrimidine hydrochloride]	113	~525	–	100	3	2.2	–	–	–	–	–	–	–	–	–	–	–
CSc1c(Cl)nc(N(C)C(=O)c2ccccc2)nc1N1CCN(C)CC1 [Example 13, 2-(N-methyl-N-benzoyl)amino-4-N-methyl-piperazino-6-chloro-5-methylthio-pyrimidine hydrochloride]	91	~600	1.9	–	4	2.6	300	–	–	–	–	–	> 300	–	–	–	–
CCN(CC)c1nc(Cl)c(SC)c(N2CCN(C)CC2)n1 [Example 15, 2-N-diethylamino-4-N-methylpiperazino-5-methylthio-6-chloro-pyrimidine dihydrobromide]	123	~600	–	300	5	4	–	–	–	–	–	–	–	–	–	–	–
CNc1nc(OC)c(SC)c(N2CCN(C)CC2)n1 [Example 17, 2-Methylamino-4-N-methylpiperazino-5-methyl-thio-6-methoxy-pyrimidine hydrochloride]	58	~400	–	–	–	–	–	1.4	–	–	3	–	100	–	–	–	–
CCCOc1nc(NC)nc(N2CCN(C)CC2)c1SC [Example 18, 2-Methylamino-4-N-methylpiperazino-5-methylthio-6-propoxy-pyrimidine hydrochloride]	63	~525	3.9	–	> 5	2.1	–	–	–	–	–	–	–	–	–	–	–
C=CCOc1nc(NC)nc(N2CCN(C)CC2)c1SC [Example 19, 2-methylamino-4-N-methylpiperazino-5-methylthio-6-allyloxy-pyrimidine hydrochloride]	56	~400	1.5	100	> 5	3.1	–	–	–	–	–	–	> 100	–	–	–	–
C=CCNc1nc(Cl)c(SC)c(N2CCN(C)CC2)n1 [Example 21, 2-Allylamino-4-N-methylpiperazino-6-chloro-5-methylthio-pyrimidine]	46	~200	0.8	> 100	1.6 (≈ 5.1 µM)	1 (≈ 3.19 µM)	20	–	300	–	0.01	–	> 100	28	soluble	soluble	water-insoluble
CSc1c(Cl)nc(NCCO)nc1N1CCN(C)CC1 [Example 22, 2-N-(β-hydroxyethyl)amino-4-N-methylpiperazino-6-chloro-5-methylthiopyrimidine]	89	~600	0.85	> 100	> 10	> 10	> 100	–	–	–	0.16	–	–	100	soluble	soluble	insoluble
CSc1c(Cl)nc(N2CCOCC2)nc1N1CCN(C)CC1 [Example 28, 2-Morpholino-4-N-methylpiperazino-6-chloro-5-methylthiopyrimidine]	110	~400	> 5	> 100	4.5 (≈ 13.1 µM)	1.7 (≈ 4.94 µM)	70	–	–	–	> 0.1	–	> 100	100	soluble	soluble	insoluble
COc1ccc(Nc2nc(Cl)c(SC)c(N3CCN(C)CC3)n2)cc1 [Example 32, 4'-methoxy-2-phenylamino-4-N-methylpiperazino-6-chloro-5-methylthiopyrimidine]	83	~495	–	> 35	5.5 (≈ 14.5 µM)	–	27	–	–	–	0.9	–	–	60	soluble	–	insoluble
